The target in the first experiment is T1, METTL3/14 (Homo sapiens, UniProt Q86U44).
T1 construct: The enzyme used was full-length his-tagged METTL3; His; made in house
T1 sequence (Q86U44 whole entry): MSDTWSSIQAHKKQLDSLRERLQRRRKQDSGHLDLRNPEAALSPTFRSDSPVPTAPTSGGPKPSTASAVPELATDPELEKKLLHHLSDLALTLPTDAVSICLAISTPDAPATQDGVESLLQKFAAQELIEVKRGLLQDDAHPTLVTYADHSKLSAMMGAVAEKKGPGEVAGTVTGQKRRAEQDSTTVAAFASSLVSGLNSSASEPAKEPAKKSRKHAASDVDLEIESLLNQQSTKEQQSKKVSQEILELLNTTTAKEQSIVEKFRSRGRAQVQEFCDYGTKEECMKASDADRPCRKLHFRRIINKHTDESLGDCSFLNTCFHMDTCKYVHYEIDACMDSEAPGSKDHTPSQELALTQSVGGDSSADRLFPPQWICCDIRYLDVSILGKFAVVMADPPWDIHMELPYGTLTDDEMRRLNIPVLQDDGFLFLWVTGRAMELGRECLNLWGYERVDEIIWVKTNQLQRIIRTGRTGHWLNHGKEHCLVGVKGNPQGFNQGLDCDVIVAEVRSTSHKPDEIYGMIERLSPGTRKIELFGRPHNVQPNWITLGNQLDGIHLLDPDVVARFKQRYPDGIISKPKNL
T1 sequence (Q9HCE5 whole entry partner): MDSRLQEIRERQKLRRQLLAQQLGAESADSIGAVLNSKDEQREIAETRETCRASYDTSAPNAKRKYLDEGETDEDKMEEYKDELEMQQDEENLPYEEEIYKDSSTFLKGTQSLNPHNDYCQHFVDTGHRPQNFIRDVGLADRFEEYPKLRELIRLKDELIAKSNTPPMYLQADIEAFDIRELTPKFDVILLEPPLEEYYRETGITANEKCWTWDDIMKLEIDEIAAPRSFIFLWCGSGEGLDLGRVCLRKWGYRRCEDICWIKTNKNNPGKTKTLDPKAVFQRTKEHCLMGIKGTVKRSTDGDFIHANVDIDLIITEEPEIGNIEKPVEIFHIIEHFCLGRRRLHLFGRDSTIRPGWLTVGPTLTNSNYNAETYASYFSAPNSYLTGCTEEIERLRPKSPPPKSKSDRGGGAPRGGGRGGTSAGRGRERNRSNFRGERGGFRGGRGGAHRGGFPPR
Put plainly: METTL3/14 methyltransferase assay (METTL3_14 RFMS, RapidFire mass spectrometry).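 Note: recombinant His-tagged METTL3 with FLAG-tagged METTL14 from baculovirus, SAH product quantified by mass spectrometry against isotope-labelled internal standards, 60 min at room temperature, scaled between no-RNA and DMSO-only wells.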 The experiment is classed as biochemical. Particulars: 5 nM METTL3/14, 0.2 μM RNA substrate, 0.5 μM SAM; lower limit of the assay IC50=5 nM; Compounds 63-265; read-out: METTL3_14 RFMS IC50.
Description: The enzyme used was full-length his-tagged METTL3 co-expressed with full length FLAG-tagged METTL14 in a baculovirus expression system. […] After termination, plates were sealed, centrifuged and stored at 4° C. until analysis. […] Mass Spectrometry Analysis RNA methyltransferase activity was measured label free using the RapidFireTM mass spectrometry (RF/MS) platform. Stopped and stable assay plates were analyzed on the Agilent RF300 integrated autosampler/solid-phase extraction (SPE) system coupled to an ABSciex 4000 mass spectrometer for the generation of the product S-adenosyl homocysteine (SAH) and normalized to the ratio of signal of the two internal product standards, respectively. Solvent A was water containing 0.1% (v/v) TCA. Solvent B was acetonitrile/0.1% ammonium acetate (8:2, v/v). More specifically, plates were centrifuged at 4350 rpm for 10 min, samples were aspirated under vacuum for 600 ms, then loaded onto a C18 solid-phase extraction cartridge and washed for 3 s with solvent A at a flow rate of 1.5 mL/min. Retained product and internal standards were eluted with solvent B at a flow rate of 1 mL/min for 3 s and finally the cartridge was reequilibrated with solvent A for 500 ms.
One may read the IC50 as the concentration at which inhibition is half-maximal. As to `CC(C)(F)CNCc1ccc2nc(CNC(=O)c3cc(=O)n4ccccc4n3)cn2c1` [Compound 202, N-[(6-{[(2-fluoro-2-methylpropyl)amino]methyl}imidazo[1,2-a]pyridin-2-yl)methyl]-4-oxo-4H-pyrido[1,2-a] pyrimidine-2-carboxamide], the IC50 turned out to be 61.1 nM.
Still for that read-out and setting: with `CN(CCC1CC1)Cc1ccc2nc(CNC(=O)c3cc(=O)n4ccccc4n3)cn2c1` [Compound 204, N-[(6-{[(2-cyclopropylethyl) (methyl)amino]methyl}imidazo [1,2-a]pyridin-2-yl)methyl]-4-oxo-4H-pyrido [1,2-a]pyrimidine-2-carboxamide] the figure was 61.5 nM.
As to `CN(Cc1ccc2nc(CNC(=O)c3cc(=O)n4ccccc4n3)cn2c1)CC(C)(C)C` [Compound 205, N-[(6-{[(2,2-dimethylpropyl) (methyl)amino]methyl}imidazo [1,2-a]pyridin-2-yl)methyl]-4-oxo-4H-pyrido [1,2-a]pyrimidine-2-carboxamide], the IC50 came out at 197 nM.
As for `O=C(NCc1cn2cc(CN3CCCC(F)(F)C3)ccc2n1)c1cc(=O)n2ccccc2n1` [Compound 208, N-({6-[(3,3-difluoropiperidin-1-yl)methyl]imidazo[1,2-a]pyridin-2-yl}methyl)-4-oxo-4H-pyrido [1,2-a]pyrimidine-2-carboxamide], the half-inhibitory concentration (IC50) was determined as 5730 nM.
On the same count and under the same terms, with `C[C@H](NCc1ccc2nc(CNC(=O)c3cc(=O)n4ccccc4n3)cn2c1)C(C)(C)C` [Compound 215, N-{[6-({[(2S)-3,3-dimethylbutan-2-yl]amino}methyl)imidazo[1,2-a]pyridin-2-yl]methyl}-4-oxo-4H-pyrido [1,2-a]pyrimidine-2-carboxamide] the figure was 54.3 nM.
As for `O=C(NCc1cn2cc(CN3CCCCC3)ccc2n1)c1cc(=O)c2ccccc2o1` [Compound 219, 4-oxo-N-({6-[(piperidin-1-yl)methyl]imidazo[1,2-a]pyridin-2-yl}methyl)-4H-chromene-2-carboxamide], the IC50 was 247 nM.
As to `O=C(NCc1cn2cc(CNCc3ccc(Cl)cc3)ccc2n1)c1cc(=O)c2ccccc2o1` [Compound 220, N-{[6-({[(4-chlorophenyl)methyl]amino}methyl)imidazo[1,2-a]pyridin-2-yl]methyl}-4-oxo-4H-chromene-2-carboxamide], the IC50 was 168 nM.
In the case of `O=C(NCc1cn2cc(CNCc3ccccc3)ccc2n1)c1cc(=O)c2ccccc2o1` [Compound 221, N-({6-[(benzylamino)methyl]imidazo[1,2-a]pyridin-2-yl}methyl)-4-oxo-4H-chromene-2-carboxamide], the IC50 was 46.7 nM.
For `CC1(CNCc2ccc3nc(CNC(=O)c4cc(=O)c5ccccc5o4)cn3c2)CCCCC1` [Compound 222, N-{[6-({[(1-methylcyclohexyl)methyl]amino}methyl)imidazo [1,2-a]pyridin-2-yl]methyl}-4-oxo-4H-chromene-2-carboxamide], the IC50 was 33.9 nM.
For the compound `O=C(NCc1cn2ccc(CNCC3CCCCC3)cc2n1)c1cc(=O)n2ccccc2n1` [Compound 223, N-[(7-{[(cyclohexylmethyl)amino]methyl}imidazo[1,2-a]pyridin-2-yl)methyl]-4-oxo-4H-pyrido[1,2-a]pyrimidine-2-carboxamide], the half-inhibitory concentration (IC50) came to 2170 nM.
For the compound `O=C(NCc1cn2ccc(CNCC3CC3)cc2n1)c1cc(=O)n2ccccc2n1` [Compound 224, N-[(7-{[(cyclopropylmethyl)amino]methyl}imidazo[1,2-a]pyridin-2-yl)methyl]-4-oxo-4H-pyrido[1,2-a]pyrimidine-2-carboxamide], the 50% inhibitory concentration (IC50) was found to be 1870 nM.
Turning to `O=C(NCc1cn2cc(CNC(=O)C3CCCCC3)ccc2n1)c1cc(=O)n2ccccc2n1` [Compound 238, N-({6-[(cyclohexylformamido)methyl]imidazo[1,2-a]pyridin-2-yl}methyl)-4-oxo-4H-pyrido[1,2-a]pyrimidine-2-carboxamide], the IC50 was 850 nM.
On to `O=C(NCc1cn2cc(CNCC3CCCNC3)ccc2n1)c1cc(=O)n2ccccc2n1` (centres unmarked) [Compound 239, 4-oxo-N-{[6-({[(piperidin-3-yl)methyl]amino}methyl)imidazo[1,2-a]pyridin-2-yl]methyl}-4H-pyrido[1,2-a]pyrimidine-2-carboxamide], for which the IC50 was found to be 513 nM.
On to `O=C(NCc1cn2cc(CNCC3CCCCN3)ccc2n1)c1cc(=O)n2ccccc2n1` (centres unmarked) [Compound 240, 4-oxo-N-{[6-({[(piperidin-2-yl)methyl]amino}methyl)imidazo[1,2-a]pyridin-2-yl]methyl}-4H-pyrido[1,2-a]pyrimidine-2-carboxamide], for which the IC50 came out at 260 nM.
As for `O=C(NCc1cn2cc(CNC3CNC3)ccc2n1)c1cc(=O)n2ccccc2n1` [Compound 241, N-[(6-{[(azetidin-3-yl)amino]methyl}imidazo[1,2-a]pyridin-2-yl)methyl]-4-oxo-4H-pyrido[1,2-a]pyrimidine-2-carboxamide], the half-maximal inhibitory concentration (IC50) was determined as 2110 nM.
In the case of `O=C(NCc1cn2cc(C3(NCC4CCCCC4)CC3)ccc2n1)c1cc(=O)n2ccccc2n1` [Compound 245, N-[(6-{1-[(cyclohexylmethyl)amino]cyclopropyl}imidazo[1,2-a]pyridin-2-yl)methyl]-4-oxo-4H-pyrido[1,2-a]pyrimidine-2-carboxamide], the IC50 came out at 735 nM.
Regarding `NC(Cc1ccccc1)Cc1ccc2nc(CNC(=O)c3cc(=O)n4ccccc4n3)cn2c1` (centres unmarked) [Compound 247, N-{[6-(2-amino-3-phenylpropyl)imidazo[1,2-a]pyridin-2-yl]methyl}-4-oxo-4H-pyrido[1,2-a]pyrimidine-2-carboxamide], the IC50 was found to be 1080 nM.
For `CC(C)(C)CNCc1ccc2nc(CNC(=O)c3cc(=O)c4ccccc4o3)cn2c1` [Compound 265, N-[(6-{[(2,2-dimethylpropyl)amino]methyl}imidazo[1,2-a]pyridin-2-yl)methyl]-4-oxo-4H-chromene-2-carboxamide], the IC50 was determined as 50.6 nM.

Staying with this experiment, now noted: 5 nM METTL3/14, 0.2 μM RNA substrate, 0.5 μM SAM; lower limit of the assay IC50=5 nM; Compounds 266-351; read-out: METTL3_14 RFMS IC50.
Turning to `CC(C)(C#N)CNCc1ccc2nc(CNC(=O)c3cc(=O)n4ccccc4n3)cn2c1` [Compound 275, N-[[6-[[(2-cyano-2-methyl-propyl)amino]methyl]imidazo[1,2-a]pyridin-2-yl]methyl]-4-oxo-pyrido[1,2-a]pyrimidine-2-carboxamide], the IC50 was determined as 1240 nM.
With `O=C(NCc1cn2cc(CNCC3CC4(CCC4)C3)ccc2n1)c1cc(=O)n2ccccc2n1` [Compound 277, 4-oxo-N-[[6-[(spiro[3.3]heptan-2-ylmethylamino)methyl]imidazo[1,2-a]pyridin-2-yl]methyl]pyrido[1,2-a]pyrimidine-2-carboxamide], the IC50 stood at 76.3 nM.
Same read-out and setting: for `CCC(O)CNCc1ccc2nc(CNC(=O)c3cc(=O)n4ccccc4n3)cn2c1` (centres unmarked) [Compound 289, N-[[6-[(2-hydroxputylamino)methyl]imidazo[1,2-a]pyridin-2-yl]methyl]-4-oxo-pyrido[1,2-a]pyrimidine-2-carboxamide] the value was 103 nM; for `CC1(C)CC(CNCc2ccc3nc(CNC(=O)c4cc(=O)n5ccccc5n4)cn3c2)C1` [Compound 291, N-[[6-[[(3,3-dimethylcyclobutyl)methylamino]methyl]imidazo[1,2-a]pyridin-2-yl]methyl]-4-oxo-pyrido[1,2-a]pyrimidine-2-carboxamide], 62.2 nM; for `O=C(NCc1cn2cc(CNCC3CC4C=CC3C4)ccc2n1)c1cc(=O)n2ccccc2n1` (centres unmarked) [Compound 346, N-[(6-{[({bicyclo[2.2.1]hept-5-en-2-yl}methyl)amino]methyl}imidazo[1,2-a]pyridin-2-yl)methyl]-4-oxo-4H-pyrido[1,2-a]pyrimidine-2-carboxamide], 7.68 nM.
Take `O=C(NCc1cn2cc(CNC[C@@H]3C[C@H]4CC[C@@H]3C4)ccc2n1)c1cc(=O)n2ccccc2n1` [Compound 347, N-({6-[({[(1R,2R,4S)-bicyclo[2.2.1]heptan-2-yl]methyl}amino)methyl]imidazo[1,2-a]pyridin-2-yl}methyl)-4-oxo-4H-pyrido[1,2-a]pyrimidine-2-carboxamide]: the IC50 is 7.5 nM.
With `O=C(NCc1cn2cc(CNC[C@H]3C[C@H]4CC[C@@H]3C4)ccc2n1)c1cc(=O)n2ccccc2n1` [Compound 348, N-({6-[({[(1R,2S,4S)-bicyclo[2.2.1]heptan-2-yl]methyl}amino)methyl]imidazo[1,2-a]pyridin-2-yl}methyl)-4-oxo-4H-pyrido[1,2-a]pyrimidine-2-carboxamide], the IC50 came out at 9.02 nM.
Take `O=C(NCc1cn2cc(CN3CC4CC3CO4)ccc2n1)c1cc(=O)n2ccccc2n1` (centres unmarked) [Compound 349, N-{[6-({2-oxa-5-azabicyclo[2.2.1]heptan-5-yl}methyl)imidazo[1,2-a]pyridin-2-yl]methyl}-4-oxo-4H-pyrido[1,2-a]pyrimidine-2-carboxamide]: the IC50 amounted to 303 nM.
As for `O=C(NCc1cn2cc(CN3CC4CCC3C4)ccc2n1)c1cc(=O)n2ccccc2n1` (centres unmarked) [Compound 350, N-{[6-({2-azabicyclo[2.2.1]heptan-2-yl}methyl)imidazo[1,2-a]pyridin-2-yl]methyl}-4-oxo-4H-pyrido[1,2-a]pyrimidine-2-carboxamide], the IC50 is 56.2 nM.
Take `O=C(NCc1cn2cc(CN3CC4CCC3CC4)ccc2n1)c1cc(=O)n2ccccc2n1` [Compound 351, N-{[6-({2-azabicyclo[2.2.2]octan-2-yl}methyl)imidazo[1,2-a]pyridin-2-yl]methyl}-4-oxo-4H-pyrido[1,2-a]pyrimidine-2-carboxamide]: the IC50 was 24.1 nM.

Still in this experiment, the particulars now being: read-out: METTL3_14 RFMS IC50.
In the case of `O=C(NCc1cn2ccc(CNCCc3ccccc3)cc2n1)c1cc(=O)n2ccccc2n1` [Compound 243, 4-oxo-N-[(7-{[(2-phenylethyl)amino]methyl}imidazo[1,2-a]pyridin-2-yl)methyl]-4H-pyrido[1,2-a]pyrimidine-2-carboxamide], the IC50 is 1450 nM.

The values above are taken from patent publication US12358915B2, “METTL3 inhibitory compounds” (STORM THERAPEUTICS LTD., priority 2019, dated 2025).
